# Measured values reported in patent US20240092831A1, “Proteasome Inhibitors” (Mayo Foundation for Medical Education and Research, priority 2019, published 2024).
# Like-named read-outs stand apart in the source and are kept apart here. Non-standard residues stand in square brackets, D forms with d. Residues, ends and D or L forms follow the SMILES beside them. ξ: configuration not given here. *: point of attachment. Hydrocinnamoyl = O=C(CCc1ccccc1)*; ξF = NC(Cc1ccccc1)C(=O)O; Cbz = O=C(OCc1ccccc1)*
# Assays:
# MWCL.1 = assay: MTS assay, MWCL.1; type: cell-based
# BCWM.1 = assay: MTS assay, BCWM.1; type: cell-based; settings: BCWM1
# β1 = molecular target: T1, β1 (Homo sapiens, UniProt P28065); assay: Proteasome β1 enzyme activity in WM cell lines (fluorogenic substrate); type: cell-based; settings: comparator
# T1 construct: In vitro proteasome enzyme activity at the β5 and β1 subunits was examined in all WM cell lines +/−Compound 1; endogenous in cells; host or cells: BWCM.1 (BCWM.1), MWCL-1, RPCI-WM1 and isogenic bortezomib/PI-resistant subclones
# Experimental: (§1) Methodology: BWCM.1, MWCL-1 and RPCI-WM1 and isogenic PI-resistant subclones were used in experiments. WM cell viability determined by 72 hour CellTiter Glo assay. Proteasome enzyme activity was estimated by fluorogenic substrates specific for β5 and β1. Protein expression was determined by western blotting. Apoptosis was assessed by annexin-V/PI staining.
# MWCL.1/BR = assay: MTS assay, MWCL.1/BR; type: cell-based; settings: bortezomib-resistant subclone
# RPCI.WM1 = assay: MTS assay, RPCI.WM1; type: cell-based
# [1] = system: bortezomib resistant cells; assay: Cell viability (MTS/CellTiter Glo), bortezomib resistant multiple myeloma cells; type: cell-based
# Experimental: (§2) Methods: CD138+ cells from multiple myeloma patients, bortezomib-sensitive multiple myeloma cell lines (OPM2, KMS11 and U266) and their isogenic bortezomib resistant subclones were used in experiments. Fluorogenic peptide substrates were used to measure β-subunit-specific enzymatic activity. Gene disruption was conducted using 2 different shRNA hairpins for PSMB5 (β5) and PSMB9 ([…]). […] HT12v4 gene expression array and NanoString mRNA quantification were used for gene expression profiling (GEP), followed by qPCR for confirmation. Novel dual β5-β1i proteasome inhibitors were synthesized and tested in vitro. Apoptosis was determined by annexin-V/[…] staining and MTS/CellTiter Glo assay used to determine cell viability.
# β5 = assay: Proteasome β5 enzyme activity in WM cell lines (fluorogenic substrate); type: cell-based; settings: comparator
# Experimental: as §1
# Results: Chemical compounds capable of inhibiting enzymatic activity of both β5 and β1 were prepared. […] (FIGS. 2B, 2C). […] In vitro proteasome enzyme activity at the β5 and β1 subunits was examined in all WM cell lines +/−Compound 1 (with bortezomib serving as a comparator).
# BCWM.1/BR = assay: MTS assay, BCWM.1/BR; type: cell-based; settings: BCWM1, bortezomib-resistant subclone
# RPCI.WM1/BR = assay: MTS assay, RPCI.WM1/BR; type: cell-based; settings: bortezomib-resistant subclone
# [2] = system: bortezomib sensitive cells; assay: Cell viability (MTS/CellTiter Glo), bortezomib sensitive multiple myeloma cells; type: cell-based
# Experimental: as §2
# B1i = molecular target: T2, B1i (Homo sapiens, UniProt P28065); assay: In vitro enzymatic potency of dual-β5/β1i inhibitors (Table 2); type: biochemical
# T2 construct: endogenous in cells; host or cells: OPM2 and OPM2/BR multiple myeloma cell lines
# Experimental: as §2
# The results were shown for multiple myeloma cell lines (OPM2, OPM2/BR).
smiles,measurement,setting,value
"CC(C)C[C@H](NC(=O)[C@H](Cc1ccccc1)NC(=O)c1cnccn1)B(O)O [Bortezomib, bortezomib]",IC50,MWCL.1,10.2 nM
same,IC50,BCWM.1,8.6 nM
same,effect on β1 activity,β1,did not decrease β1 activity
same,IC50,MWCL.1/BR,16.7 nM
same,IC50,RPCI.WM1,3 nM
same,IC50,"[1]; bortezomib resistant cells, before PSMB9 downregulation, read-out: IC50 (shift from)",235 nM
same,IC50,"[1]; bortezomib resistant cells, read-out: Bortezomib IC50",284 nM
same,IC50,"[1]; bortezomib resistant-PSMB9 shRNA transfected cells, read-out: IC50 (shift to)",108 nM
same,effect on β5 enzymatic function,β5,only β5 enzymatic function
same,IC50,BCWM.1/BR,17.6 nM
same,IC50,RPCI.WM1/BR,114 nM
same,IC50,[2],4 nM
CC(C)[C@H](NC(=O)CCc1ccccc1)C(=O)NC(C=O)Cc1ccccc1 (stereo partly shown) [Compound 1-2] (Hydrocinnamoyl-Val-[ξF]-aldehyde),IC50,B1i; first column of Table 2,1000 nM
same,IC50,B1i; second column of Table 2,5000 nM
CC(C)C[C@H](NC(=O)OCc1ccccc1)C(=O)NC(C=O)Cc1ccccc1 (stereo partly drawn) [Compound 6-2] (Cbz-Leu-[ξF]-aldehyde),IC50,B1i; first column of Table 2,1000 nM
same,IC50,B1i; second column of Table 2,5000 nM
O=CC(Cc1ccccc1)NC(=O)[C@H](Cc1ccccc1)NC(=O)OCc1ccccc1 (stereo partly drawn) [Compound 7-2] (Cbz-Phe-[ξF]-aldehyde),IC50,B1i; first column of Table 2,5000 nM
same,IC50,B1i; second column of Table 2,5000 nM
CC(C)[C@H](NC(=O)c1ccncc1)C(=O)NC(C=O)Cc1ccccc1 (stereo partly shown) [Compound 12-2],IC50,B1i; first column of Table 2,5000 nM
same,IC50,B1i; second column of Table 2,5000 nM
CCOC(=O)/C(C#N)=C/C(Cc1ccccc1)NC(=O)[C@@H](NC(=O)OCc1ccccc1)C(C)C (stereo partly shown) [Compound 15-2],IC50,B1i; first column of Table 2,> 10000 nM
same,IC50,B1i; second column of Table 2,5000 nM
